Laboratory results taken from PubChem BioAssay AID256 (DTP/NCI, 2004).
Where “and” joins values, the source holds several entries; their conditions need not be identical. Equal entries are not always repeated. Inconclusive results and toxic doses are left out.

Tested on: CD2F1 mice, L1210 leukemia ip, survival T/C
Assay: NCI In Vivo Anticancer Drug Screen. Data for tumor model L1210 Leukemia (intraperitoneal) in CD2F1 (CDF1) mice
Conditions: higher = longer survival
Outline: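 Antitumor effect is scored in animals hosting a serially transplanted tumor. Values compare compound-dosed animals against vehicle-only controls as a simple quotient.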

[1] = endpoint: mean survival time, dose: 12.5 mg/kg/injection, schedule: Q01DX009 (ip), vehicle: water
[2] = endpoint: mean survival time, dose: 25.0 mg/kg/injection, schedule: Q01DX009 (ip), vehicle: water
[3] = endpoint: mean survival time, dose: 50.0 mg/kg/injection, schedule: Q01DX009 (ip), vehicle: water
[4] = endpoint: mean survival time, dose: 100.0 mg/kg/injection, schedule: Q01DX009 (ip), vehicle: water
[5] = endpoint: mean survival time, dose: 100.0 mg/kg/injection, schedule: Q01DX009 (ip), vehicle: saline with Tween-80
[6] = endpoint: mean survival time, dose: 100.0 mg/kg/injection, schedule: Q04DX003 (ip), vehicle: saline with Tween-80
[7] = endpoint: mean survival time, dose: 200.0 mg/kg/injection, schedule: Q04DX003 (ip), vehicle: saline with Tween-80
[8] = endpoint: mean survival time, dose: 400.0 mg/kg/injection, schedule: Q04DX003 (ip), vehicle: saline with Tween-80
[9] = endpoint: mean survival time, dose: 100.0 mg/kg/injection, schedule: Q04DX002 (ip), vehicle: saline with Tween-80
[10] = endpoint: mean survival time, dose: 200.0 mg/kg/injection, schedule: Q04DX002 (ip), vehicle: saline with Tween-80
[11] = endpoint: mean survival time, dose: 400.0 mg/kg/injection, schedule: Q04DX002 (ip), vehicle: saline with Tween-80
[12] = endpoint: mean survival time, dose: 50.0 mg/kg/injection, schedule: Q04DX002 (ip), vehicle: saline with Tween-80
[13] = endpoint: mean survival time, dose: 75.0 mg/kg/injection, schedule: Q04DX003 (ip), vehicle: saline
[14] = endpoint: mean survival time, dose: 100.0 mg/kg/injection, schedule: Q04DX003 (ip), vehicle: saline
[15] = endpoint: mean survival time, dose: 150.0 mg/kg/injection, schedule: Q04DX003 (ip), vehicle: saline
[16] = endpoint: mean survival time, dose: 6.25 mg/kg/injection, schedule: Q01DX009 (ip), vehicle: Klucel (hydroxypropylcellulose) (HPC)
[17] = endpoint: mean survival time, dose: 12.5 mg/kg/injection, schedule: Q01DX009 (ip), vehicle: Klucel (hydroxypropylcellulose) (HPC)

COc1ccc(C2NCCc3cc(OC)c(OC)cc32)cc1OC (configuration not stated)
T/C [1]: 98 % of control | T/C [2]: 98 % of control | T/C [3]: 98 % of control | T/C [4]: 106 % of control

S=c1[nH]nc2n1NC(c1ccccc1)=NN2
T/C [5]: 104 % of control | T/C [6]: 91 % of control | T/C (endpoint: mean survival time, dose: 200.0 mg/kg/injection, schedule: Q01DX009 (ip), vehicle: saline with Tween-80): 112 % of control | T/C [7]: 96 % of control | T/C (endpoint: mean survival time, dose: 400.0 mg/kg/injection, schedule: Q01DX009 (ip), vehicle: saline with Tween-80): 106 % of control | T/C [8]: 101 % of control

CCOC(=O)CC(=O)c1c(C)cc(C)c(Br)c1C
T/C [7]: 97 % of control | T/C [8]: 92 % of control

COc1ccc(CCNc2ccc(OC)c(OC)c2)cc1OC
T/C [1]: 100 % of control | T/C [2]: 96 % of control | T/C [3]: 100 % of control | T/C [4]: 96 % of control | T/C (endpoint: mean survival time, dose: 200.0 mg/kg/injection, schedule: Q01DX009 (ip), vehicle: water): 91 % of control

C[n+]1ccc2ccccc2c1SC1CCC2CC3CC2C1C3 (configuration not stated)
T/C (endpoint: mean survival time, dose: 10.0 mg/kg/injection, schedule: Q01DX009 (iv), vehicle: methylcellulose (MC)): 97 % of control | T/C (endpoint: mean survival time, dose: 20.0 mg/kg/injection, schedule: Q01DX009 (iv), vehicle: methylcellulose (MC)): 97 % of control

COc1cc2ccnc(Nc3ccccc3)c2cc1OC
T/C [9]: 95 % of control | T/C [10]: 95 % of control | T/C [11]: 87 % of control

c1ccc(P(CCNCCP(c2ccccc2)c2ccccc2)c2ccccc2)cc1
T/C (endpoint: median survival time, dose: 25.0 mg/kg/injection, schedule: Q01DX009 (ip), vehicle: saline with Tween-80): 101 % of control | T/C (endpoint: median survival time, dose: 50.0 mg/kg/injection, schedule: Q01DX009 (ip), vehicle: saline with Tween-80): 103 % of control | T/C (endpoint: median survival time, dose: 100.0 mg/kg/injection, schedule: Q01DX009 (ip), vehicle: saline with Tween-80): 103 % of control | T/C (endpoint: median survival time, dose: 200.0 mg/kg/injection, schedule: Q01DX009 (ip), vehicle: saline with Tween-80): 101 % of control

CCN=C(N)C(N)=NCC
T/C (endpoint: mean survival time, dose: 25.0 mg/kg/injection, schedule: Q04DX002 (ip), vehicle: saline with Tween-80): 100 % of control | T/C [12]: 96 % of control | T/C [9]: 100 % of control | T/C [10]: 100 % of control

CC1=CC(=O)[C@@H](O)[C@]2(C)[C@H]3[C@@]4(O)OC[C@]35[C@H]([C@@H](C)[C@H]4O)[C@@H](OC(=O)c3ccccc3)C(=O)O[C@@H]5C[C@@H]12
T/C (endpoint: mean survival time, dose: 0.25 mg/kg/injection, schedule: Q01DX009 (ip), vehicle: saline with Tween-80): 105 % of control | T/C (endpoint: mean survival time, dose: 0.5 mg/kg/injection, schedule: Q01DX009 (ip), vehicle: saline with Tween-80): 100 % of control | T/C (endpoint: mean survival time, dose: 1.0 mg/kg/injection, schedule: Q01DX009 (ip), vehicle: saline with Tween-80): 100 % of control | T/C (endpoint: mean survival time, dose: 2.0 mg/kg/injection, schedule: Q01DX009 (ip), vehicle: saline with Tween-80): 105 % of control

CC(C)=NC(=O)NO.[Cl][Co][Cl]
T/C (endpoint: mean survival time, dose: 50.0 mg/kg/injection, schedule: Q04DX003 (ip), vehicle: saline): 109 % of control | T/C [13]: 113 % of control | T/C [14]: 100 % of control | T/C (endpoint: mean survival time, dose: 125.0 mg/kg/injection, schedule: Q04DX003 (ip), vehicle: saline): 113 % of control

CC(C)OC(=O)N(C(=O)OC(C)C)c1ccc(F)cc1
T/C [9]: 91 % of control | T/C [10]: 97 % of control | T/C [11]: 94 % of control

Cc1cc2c(cc1C)N(C(=O)CN1CCCCC1)CC(=O)N2
T/C [13]: 94 % of control | T/C [15]: 89 % of control

C=C(Cl)CN(CC)CCO
T/C [5]: 103 % of control

CNCCNC1=C(Cl)C(=O)c2ccccc2C1=O
T/C (endpoint: mean survival time, dose: 6.25 mg/kg/injection, schedule: Q04DX003 (ip), vehicle: saline with Tween-80): 101 % of control | T/C (endpoint: mean survival time, dose: 12.5 mg/kg/injection, schedule: Q04DX003 (ip), vehicle: saline with Tween-80): 101 % of control | T/C (endpoint: mean survival time, dose: 25.0 mg/kg/injection, schedule: Q04DX003 (ip), vehicle: saline with Tween-80): 96 % of control and 102 % of control

N#Cc1nnn(C2OC(CO)C(O)C2O)c1C#N (configuration not stated)
T/C (endpoint: mean survival time, dose: 12.5 mg/kg/injection, schedule: Q01DX005 (ip), vehicle: other): 100 % of control | T/C (endpoint: mean survival time, dose: 25.0 mg/kg/injection, schedule: Q01DX005 (ip), vehicle: other): 97 % of control | T/C (endpoint: mean survival time, dose: 50.0 mg/kg/injection, schedule: Q01DX005 (ip), vehicle: other): 96 % of control | T/C (endpoint: mean survival time, dose: 100.0 mg/kg/injection, schedule: Q01DX005 (ip), vehicle: other): 94 % of control | T/C (endpoint: mean survival time, dose: 200.0 mg/kg/injection, schedule: Q01DX005 (ip), vehicle: other): 102 % of control

Oc1ccccc1C=NC1CCCCC1N=Cc1ccccc1O.[Ni] (configuration not stated)
T/C [12]: 89 % of control | T/C [9]: 97 % of control | T/C [10]: 97 % of control | T/C [11]: 93 % of control

Cc1ncc([N+](=O)[O-])cc1C(=O)O
T/C [6]: 94 % of control | T/C [7]: 96 % of control | T/C [8]: 93 % of control

C[n+]1ccc(/C=C\c2ccc(N(CCCl)CCCl)cc2)c2ccccc21
T/C [16]: 98 % of control | T/C [17]: 101 % of control | T/C (endpoint: mean survival time, dose: 25.0 mg/kg/injection, schedule: Q01DX009 (ip), vehicle: Klucel (hydroxypropylcellulose) (HPC)): 112 % of control

CNC(=O)OCc1c(COC(=O)NC)c(-c2ccc(F)cc2)n2c1CCC2
T/C (endpoint: mean survival time, dose: 3.13 mg/kg/injection, schedule: Q01DX009 (ip), vehicle: Klucel (hydroxypropylcellulose) (HPC)): 115 % of control | T/C [16]: 107 % of control | T/C [17]: 118 % of control

COc1cc(CO)ccc1Oc1ccc(C)cc1
T/C (endpoint: mean survival time, dose: 100.0 mg/kg/injection, schedule: Q01DX001 (ip), vehicle: saline): 104 % of control | T/C [14]: 100 % of control | T/C (endpoint: mean survival time, dose: 200.0 mg/kg/injection, schedule: Q01DX001 (ip), vehicle: saline): 107 % of control | T/C (endpoint: mean survival time, dose: 200.0 mg/kg/injection, schedule: Q04DX003 (ip), vehicle: saline): 100 % of control | T/C (endpoint: mean survival time, dose: 400.0 mg/kg/injection, schedule: Q01DX001 (ip), vehicle: saline): 100 % of control | T/C (endpoint: mean survival time, dose: 400.0 mg/kg/injection, schedule: Q04DX003 (ip), vehicle: saline): 101 % of control

c1cc(-c2cc3ccc(C4=NCCN4)cc3[nH]2)ccc1C1=NCCN1
T/C (endpoint: mean survival time, dose: 3.12 mg/kg/injection, schedule: Q01DX009 (ip), vehicle: saline): 111 % of control | T/C (endpoint: mean survival time, dose: 3.12 mg/kg/injection, schedule: Q01DX009 (ip), vehicle: suspension in saline): 112 % of control | T/C (endpoint: mean survival time, dose: 6.25 mg/kg/injection, schedule: Q01DX009 (ip), vehicle: saline): 124 % of control | T/C (endpoint: mean survival time, dose: 6.25 mg/kg/injection, schedule: Q01DX009 (ip), vehicle: suspension in saline): 118 % of control | T/C (endpoint: mean survival time, dose: 12.5 mg/kg/injection, schedule: Q01DX009 (ip), vehicle: saline): 119 % of control | T/C (endpoint: mean survival time, dose: 12.5 mg/kg/injection, schedule: Q01DX009 (ip), vehicle: suspension in saline): 283 % of control | T/C (endpoint: mean survival time, dose: 25.0 mg/kg/injection, schedule: Q01DX009 (ip), vehicle: suspension in saline): 295 % of control and 336 % of control and 337 % of control | T/C (endpoint: mean survival time, dose: 50.0 mg/kg/injection, schedule: Q01DX009 (ip), vehicle: saline): 88 % of control

CCCCc1c(C)[nH]c(=S)[nH]c1=O
T/C [6]: 91 % of control | T/C [7]: 96 % of control

CC1(C)OC2COC(c3cc(C(N)=O)n[nH]3)C2O1 (configuration not stated)
T/C (endpoint: mean survival time, dose: 100.0 mg/kg/injection, schedule: Q01DX001 (ip), vehicle: saline with Tween-80): 106 % of control | T/C (endpoint: mean survival time, dose: 200.0 mg/kg/injection, schedule: Q01DX001 (ip), vehicle: saline with Tween-80): 101 % of control | T/C (endpoint: mean survival time, dose: 400.0 mg/kg/injection, schedule: Q01DX001 (ip), vehicle: saline with Tween-80): 105 % of control

C[n+]1ccc(/C(=N\O)c2ccccc2)cc1
T/C (endpoint: mean survival time, dose: 37.5 mg/kg/injection, schedule: Q04DX003 (ip), vehicle: saline): 100 % of control | T/C (endpoint: mean survival time, dose: 75.0 mg/kg/injection, schedule: Q01DX001 (ip), vehicle: saline): 101 % of control | T/C [13]: 100 % of control | T/C (endpoint: mean survival time, dose: 150.0 mg/kg/injection, schedule: Q01DX001 (ip), vehicle: saline): 97 % of control | T/C [15]: 95 % of control

NC(=O)c1ncn(CCCCCO)c1N
T/C (endpoint: mean survival time, dose: 100.0 mg/kg/injection, schedule: Q01DX001 (ip), vehicle: other): 91 % of control | T/C (endpoint: mean survival time, dose: 200.0 mg/kg/injection, schedule: Q01DX001 (ip), vehicle: other): 103 % of control | T/C (endpoint: mean survival time, dose: 400.0 mg/kg/injection, schedule: Q01DX001 (ip), vehicle: other): 101 % of control
